# Reference: ChEMBL document CHEMBL1201862, “PubChem BioAssay data set” (2004)
# Activity calls are given as the source filed them. Cut-off read from the data, not from the text of the source, for most assays here: actives have a measured EC50 and inactives only a lower limit.
# How the values were obtained:
# Cytochrome P450 2D6 = Cytochrome P450 2D6 (Homo sapiens, UniProt P10635);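 note: CYP2D6 member of a cytochrome P450 panel assay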
# [1] = Trypanosoma cruzi growth suppression in host cells – NIH3T3 host cells, beta-gal luminescence, confirmation (AID 2044); type: functional, cell-based;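 note: intracellular parasites grown in NIH/3T3 mouse fibroblasts as host cells; luminescent beta-galactosidase reporter signal from transgenic T. cruzi replicating inside host cells; inhibitors lower the luminescence signal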
# [2] = NIH3T3 cell viability loss – ATP luminescence, mouse fibroblasts, counter-screen, dose response (AID 2010); type: functional, cell-based;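 note: cells exposed to compound for about 90 hours before reading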
# [3] = target: T1, Heat shock factor protein 1 (Mus musculus, UniProt P38532); assay: enhancement of HSF1-driven luciferase signal – cell-based, NIH3T3, luminescence, dose retest, confirmation (AID 435004); type: functional;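 note: stress induced by proteasome inhibitor MG132 added 30 min after compound; luciferase reporter driven by HSF1 response element in NIH3T3 cells; actives raise luminescence as potentiators of the MG132 stress response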
# T1 sequence (P38532 whole entry): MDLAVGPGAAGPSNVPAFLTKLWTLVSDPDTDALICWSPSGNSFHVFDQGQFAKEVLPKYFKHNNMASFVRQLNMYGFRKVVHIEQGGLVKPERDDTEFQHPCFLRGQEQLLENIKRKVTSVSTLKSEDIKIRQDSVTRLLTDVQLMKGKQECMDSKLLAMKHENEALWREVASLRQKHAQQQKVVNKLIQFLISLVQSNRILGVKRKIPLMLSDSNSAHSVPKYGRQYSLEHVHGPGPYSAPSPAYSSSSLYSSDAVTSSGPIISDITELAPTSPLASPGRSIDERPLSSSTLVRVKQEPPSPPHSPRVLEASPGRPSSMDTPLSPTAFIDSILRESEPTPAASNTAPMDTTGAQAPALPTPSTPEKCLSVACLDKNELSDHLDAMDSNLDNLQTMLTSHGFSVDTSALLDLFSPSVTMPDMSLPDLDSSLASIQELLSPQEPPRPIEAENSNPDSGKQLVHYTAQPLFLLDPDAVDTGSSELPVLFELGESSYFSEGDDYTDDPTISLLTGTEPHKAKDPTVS
# Streptococcus = assay: GAS UMAA2166 growth inhibition – luminescence, BacTiterGlo, counter-screen for streptokinase expression inhibitor project, dose response (AID 1915); type: functional, organism-based;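 note: potency for reduction of bacterial viability or growth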
# [4] = tested on: Streptococcus sp. 'group A'; assay: Streptococcus pyogenes SK(-)GAS viability under kanamycin – luminescence, BacTiterGlo, confirmation, counter-screen for streptokinase expression inhibitor project, dose response (AID 1900); type: functional, organism-based
# [5] = target: T2, Corticotropin-releasing factor receptor 2/Corticotropin-releasing factor-binding protein (Homo sapiens, UniProt P24387+Q13324); assay: activators of CRF receptor 2 with binding protein – uHTS hits, confirmation (AID 602473); type: functional; conditions: read-out: EC50_Mean
# T2 sequence (Q13324 whole entry): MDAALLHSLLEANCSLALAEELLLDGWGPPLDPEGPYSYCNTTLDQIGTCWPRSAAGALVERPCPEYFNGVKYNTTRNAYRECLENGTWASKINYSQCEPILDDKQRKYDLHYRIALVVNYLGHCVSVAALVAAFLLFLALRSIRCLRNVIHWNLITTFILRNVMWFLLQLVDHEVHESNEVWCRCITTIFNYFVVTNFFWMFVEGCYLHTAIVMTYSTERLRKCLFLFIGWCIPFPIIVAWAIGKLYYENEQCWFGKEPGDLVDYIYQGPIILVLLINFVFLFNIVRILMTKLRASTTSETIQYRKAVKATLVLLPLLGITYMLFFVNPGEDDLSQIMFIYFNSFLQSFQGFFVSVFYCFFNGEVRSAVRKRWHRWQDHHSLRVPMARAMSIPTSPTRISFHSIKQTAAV
# T2 sequence (P24387 whole entry): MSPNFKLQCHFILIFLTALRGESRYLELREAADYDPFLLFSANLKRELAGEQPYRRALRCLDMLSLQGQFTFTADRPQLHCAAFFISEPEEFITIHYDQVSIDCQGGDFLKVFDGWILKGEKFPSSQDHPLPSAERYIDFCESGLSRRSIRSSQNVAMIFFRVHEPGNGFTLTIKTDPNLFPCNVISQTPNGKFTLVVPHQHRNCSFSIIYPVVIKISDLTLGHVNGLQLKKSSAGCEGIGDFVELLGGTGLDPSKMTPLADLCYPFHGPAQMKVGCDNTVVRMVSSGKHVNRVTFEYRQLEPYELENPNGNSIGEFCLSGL
# [6] = target: T1, Heat shock factor protein 1; assay: decrease of HSF1-responsive luciferase luminescence – cell-based, NIH3T3, dose retest, confirmation (AID 2382); type: functional;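 note: NIH3T3 fibroblasts with HSF1-driven luciferase reporter stressed by proteasome inhibitor MG132; luminescence from HSF1-driven luciferase expression after 8 hours of MG132 stress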
# Sequence of Cytochrome P450 2D6 (P10635 whole entry): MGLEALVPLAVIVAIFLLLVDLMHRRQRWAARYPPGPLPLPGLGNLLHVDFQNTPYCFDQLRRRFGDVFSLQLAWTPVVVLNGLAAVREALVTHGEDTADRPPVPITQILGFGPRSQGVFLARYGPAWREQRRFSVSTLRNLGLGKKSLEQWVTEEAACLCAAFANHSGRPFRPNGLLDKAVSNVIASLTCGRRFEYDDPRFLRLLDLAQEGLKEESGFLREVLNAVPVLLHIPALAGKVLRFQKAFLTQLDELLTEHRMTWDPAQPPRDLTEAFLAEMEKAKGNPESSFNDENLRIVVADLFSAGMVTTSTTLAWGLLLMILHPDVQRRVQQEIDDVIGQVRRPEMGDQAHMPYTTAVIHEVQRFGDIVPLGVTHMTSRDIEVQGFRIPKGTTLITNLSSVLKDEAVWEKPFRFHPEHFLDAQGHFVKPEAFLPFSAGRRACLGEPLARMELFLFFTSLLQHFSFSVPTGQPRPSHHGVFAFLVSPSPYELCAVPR
structure (smiles),measurement,setting,value
c1cn(-c2ncnc3ccc(-c4ccoc4)cc23)cn1,AC50,Cytochrome P450 2D6,39.8 µM (inconclusive)
CCC12CN3CC(CC)(CN(C1)C3c1ccc([N+](=O)[O-])o1)C2=O (configuration not stated),EC50,[1],0.85 µM (active)
same,EC50,[2],> 30 µM (not active)
CN(C)C(CNC(=O)CCC(=O)c1ccc(Br)cc1)c1ccccc1 (configuration not stated),EC50,[3],> 260 µM (inactive)
Cc1ccc(C(=O)NCCc2nc3ccccc3[nH]2)cc1[N+](=O)[O-],EC50,[1],1.03 µM (active)
same,EC50,[2],> 60 µM (inconclusive)
O=[N+]([O-])c1cc(Br)c(OCc2nnc(-c3ccccc3)o2)c(Br)c1,EC50,[1],1.75 µM (active)
same,EC50,[2],> 60 µM (not active)
COc1cc(OC)cc(C(=O)Nc2nc(-c3ccccc3)c(-c3ccccc3)o2)c1,EC50,Streptococcus,1.34 µM (active)
same,EC50,[4],0.617 µM (active)
O=C(N/N=C/c1ccc(-c2ccc(Br)cc2)o1)c1ccc2c(c1)OCO2,EC50,[1],1.47 µM (active)
same,EC50,[2],> 60 µM (inconclusive)
CCn1c(N)nc2ccccc21,AC50,Cytochrome P450 2D6,17.8 µM (inconclusive)
O=C(NCc1ccccn1)c1cc(-c2ccc(-c3ccccc3)cc2)nc2ccccc12,EC50,[3],0.461 µM (active)
CCOc1ccc(NS(=O)(=O)c2ccc(C(=O)NCC(c3ccco3)N3CCCC3)cc2)cc1 (configuration not stated),EC50,[5],6.17 µM (active)
CCN=C(S)NNC(=O)c1cccn(Cc2ccc(Cl)cc2Cl)c1=O,EC50,[5],7.26 µM (active)
O=C(Nc1cccc(S(=O)(=O)N2CCOCC2)c1)c1cn(-c2ccccc2)nc1-c1ccc(F)cc1,EC50,[1],2.49 µM (active)
same,EC50,[2],> 60 µM (inconclusive)
Cc1ccc(-n2nc(C)c3cc(C(=O)O)sc32)cc1,EC50,[6],> 195 µM (not active)
COc1ccccc1C(=O)C1CCCN(Cc2c[nH]nc2C2CCCCC2)C1 (configuration not stated),EC50,[1],0.604 µM (active)
same,EC50,[2],> 60 µM (not active)
COc1ccc(OC)c(Nc2nc3ccc(C)cc3n3cnnc23)c1,EC50,[3],> 260 µM (inactive)
O=C(c1ccc(-n2cncn2)c([N+](=O)[O-])c1)N1CCN(S(=O)(=O)c2ccccc2F)CC1,EC50,[6],> 195 µM (not active)
CCN(CC)c1ccc(/C=C2/C(=O)N(c3ccc([N+](=O)[O-])cc3)N=C2N2CCOCC2)cc1,EC50,[3],> 260 µM (inactive)
CCN(C(=O)c1cc2c(O)nc3ccc(C)cc3c2s1)c1ccccc1F,EC50,[3],> 260 µM (inactive)
C/C(=N\NC(=O)C(N)=O)c1ccc(O)cc1O,EC50,[6],> 195 µM (not active)
COCc1cc(CN2CCN(CCc3ccccc3)C(CCO)C2)ccc1OC (configuration not stated),EC50,[3],> 260 µM (inactive)
Cc1ccc(C(NC(=O)/C=C\c2ccc3c(c2)OCO3)C(=O)Nc2ccc3c(c2)OCO3)cc1 (configuration not stated),EC50,[3],> 260 µM (inactive)
COc1ccc(-c2nc(C#N)c(NCc3cccnc3)o2)cc1OC,EC50,[1],1.8 µM (active)
same,EC50,[2],> 60 µM (not active)
Cn1c(N)c(C(=O)Nc2ccc(-c3ccccc3)cc2)sc1=S,EC50,[6],> 195 µM (not active)
CCn1c2ccccc2c2cc(NS(=O)(=O)c3ccccc3C)ccc21,AC50,Cytochrome P450 2D6,8.91 µM (inconclusive)
O=S(=O)(NC1CCCCC1N1CCN(c2ccc(F)cc2)CC1)c1ccc(Cl)cc1 (configuration not stated),EC50,[5],3.94 µM (active)
Cc1cccc(C(=O)NNC(=O)CCn2nnc3ccccc32)c1,EC50,[3],> 260 µM (inactive)
C/C(CC(=O)Nc1cccc2c1CCCC2)=N\NC(=O)COc1ccccc1,EC50,[3],> 260 µM (inactive)
C=CCC(C(=O)OC)(C(=O)OC)c1ccc([N+](=O)[O-])cc1[N+](=O)[O-],EC50,[1],2.42 µM (active)
same,EC50,[2],> 60 µM (not active)
CS/C(=N\C#N)N1CCN(c2ccc(Cl)cc2)CC1,EC50,[3],129 µM (active)
COc1ccc(C(=O)C2=C(O)C(=O)N(CCN(C)C)C2c2cccnc2)cc1C (configuration not stated),EC50,[5],> 53 µM (inactive)
Cc1nc2c(cc1C(=O)N/N=C/c1ccc(O)c(O)c1)c(=O)n(C)c(=O)n2C,EC50,[6],> 195 µM (not active)
COc1ccc(/C=C(\C#N)C(=O)Nc2cccc(C)n2)cc1,EC50,[3],165 µM (active)
Cc1c(Cl)cccc1NC(=O)Nc1cnccn1,EC50,[6],> 195 µM (not active)
Cc1ccc(-n2nc3c(=O)n(CCCC(=O)N4CCC(C(N)=O)CC4)nc(C)c3c2C)cc1,EC50,[6],> 195 µM (not active)
CCCCOc1ccc(CSC2=NCCN2)cc1[N+](=O)[O-],EC50,[1],0.46 µM (active)
same,EC50,[2],> 30 µM (not active)
COC(=O)CNC(c1ccccc1)c1cc(Br)ccc1NC(=O)CCN1CCOCC1 (configuration not stated),EC50,[1],6.7 µM (active)
same,EC50,[2],> 60 µM (not active)
CCCC(=O)NCCc1c2n(c3ccc(OC)cc13)Cc1ccccc1-2,AC50,Cytochrome P450 2D6,39.8 µM (inconclusive)
CCOc1ccc(/C=C2\SC(=O)N(CCNC(=O)C3COc4ccccc4O3)C2=O)cc1OC (configuration not stated),EC50,[6],> 195 µM (not active)
Cc1ccc(C(=O)Cn2nnc(-c3ccccc3-n3cnnn3)n2)cc1,EC50,[3],> 260 µM (inactive)
O=C(NCC1CCCN(Cc2ccc3nonc3c2)C1)c1cccc(C(F)(F)F)c1 (configuration not stated),EC50,[1],0.771 µM (active)
same,EC50,[2],> 60 µM (not active)
COc1ccc(CNc2ncnc3ccc(-c4cccc(NS(C)(=O)=O)c4)cc23)c(OC)c1,AC50,Cytochrome P450 2D6,10 µM (inconclusive)
O=C(NCCc1nc2ccccc2[nH]1)/C(=C/c1ccc(F)cc1)NC(=O)c1ccco1,EC50,[3],> 260 µM (inactive)
Cc1ccnc(NC(=O)c2cc3cc(F)ccc3s2)c1,EC50,[3],> 260 µM (inactive)
CCOC(=O)N1CCN(c2nc(-c3ccco3)cc(C(F)(F)F)n2)CC1,AC50,Cytochrome P450 2D6,14.1 µM (inconclusive)
CCOC(=O)c1c(NC(C)=O)sc2c(OCCN(CC)CC)c(Br)ccc12,EC50,[1],1.58 µM (active)
same,EC50,[2],> 60 µM (not active)
O=C(COC(=O)COc1cccc(Br)c1)Nc1c(Cl)cccc1Cl,EC50,[3],> 260 µM (inactive)
CCOc1cc(CNCC2CCCN2CC)cc(Cl)c1OC (configuration not stated),EC50,[6],63.1 µM (active)
O=C(Cc1ccccc1)Oc1ccccc1N1C(=O)CCC1=O,EC50,[6],> 195 µM (not active)
CC(/C=N\NC(=O)c1cc(C)oc1C)=C\c1ccccc1,EC50,[6],> 195 µM (not active)
CCOC(=O)NNc1nncc2ccccc12 [TODRALAZINE],AC50,Cytochrome P450 2D6,12.6 µM (inconclusive)
Cc1ccc(OCC(=O)c2cc(C)n(-c3ccccc3)c2C)c([N+](=O)[O-])n1,EC50,[6],0.623 µM (active)
O=C1CC(c2ccc(Cl)cc2)n2nc(NS(=O)(=O)c3ccc(F)cc3)nc2N1 (configuration not stated),EC50,[3],> 260 µM (inactive)
Cc1cc(Cn2ccnc2)c(C)cc1Cn1ccnc1,EC50,[1],2.45 µM (active)
same,EC50,[2],> 60 µM (not active)
CCc1cccc(NC(=O)C2CCCN(S(=O)(=O)c3cccs3)C2)c1 (configuration not stated),EC50,[6],> 195 µM (not active)
O=[N+]([O-])c1ccc(Nc2ccc(F)cc2)cc1,EC50,[6],> 195 µM (not active)
CN(C)S(=O)(=O)N1CCN(C(=O)N2CCCCC2)CC1,EC50,[6],> 195 µM (not active)
COCCN(Cc1c[nH]nc1-c1ccc2cc(OC)ccc2c1)C(C)C,EC50,[1],1.56 µM (active)
same,EC50,[2],> 60 µM (not active)
